Values of other authors in US20110177168A1, “COMPOSITION” (SmithKline Beecham Limited, priority 2000, published 2011).

[1] = oral doses of conventional immediate release tablets

bioavailability [1]: 80%
tmax [1]: 0.5 to 1.5 h
elimination half-life (reported): 1.9 to 2.5 h
Structure (SMILES): CC(=O)Nc1ccc(O)cc1 [paracetamol, N-acetyl-p-aminophenol]
